# Assay results taken from patent US12227495B2, “Herbicidal compounds” (SYNGENTA CROP PROTECTION AG, priority 2018, dated 2025).
# Tests used:
# Format in all cases: in vivo
# [1] = test system: Amaranthus retoflexus (AMARE); test: Post-emergence herbicide test, glasshouse, percentage damage; conditions: 1000 g/ha, evaluated after 13 days
# Outline: (§1)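 Damage was rated 13 days after spraying on a five-point scale (1=0-20% to 5=81-100%). The compound was applied at 500 g/ha unless stated otherwise, in acetone/water 50:50 plus 0.5% Tween 20, on day 1 (pre-emergence) or day 8 (post-emergence) after sowing. Plants were kept under glasshouse conditions of 24/16° C day/night and 14 h light.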
# [2] = test system: Echinochloa crus-galli (ECHCG); test: as above; conditions: 1000 g/ha, evaluated after 13 days
# Outline: as §1
# [3] = test system: Ipomoea hederacea (IPOHE); test: as above; conditions: 1000 g/ha, evaluated after 13 days
# Outline: as §1
# [4] = test system: Lolium perenne (LOLPE); test: as above; conditions: 1000 g/ha, evaluated after 13 days
# Outline: as §1
# [5] = test system: Setaria faberi (SETFA); test: as above; conditions: 1000 g/ha, evaluated after 13 days
# Outline: as §1
# [6] = test system: Solanum nigrum (SOLNI); test: as above; conditions: 1000 g/ha, evaluated after 13 days
# Outline: as §1
# [7] = test system: Amaranthus retoflexus (AMARE); test: Pre-emergence herbicide test, glasshouse, percentage damage; conditions: rate 1000 g/ha, evaluated after 13 days
# Outline: as §1
# [8] = test system: Echinochloa crus-galli (ECHCG); test: as above; conditions: rate 1000 g/ha, evaluated after 13 days
# Outline: as §1
# [9] = test system: Ipomoea hederacea (IPOHE); test: as above; conditions: rate 1000 g/ha, evaluated after 13 days
# Outline: as §1
# [10] = test system: Lolium perenne (LOLPE); test: as above; conditions: rate 1000 g/ha, evaluated after 13 days
# Outline: as §1
# [11] = test system: Setaria faberi (SETFA); test: as above; conditions: rate 1000 g/ha, evaluated after 13 days
# Outline: as §1
# [12] = test system: Solanum nigrum (SOLNI); test: as above; conditions: rate 1000 g/ha, evaluated after 13 days
# Outline: as §1
structure (smiles),measurement,setting,value
N#Cc1cc(C(F)(F)F)cnc1Oc1cccc(Cl)c1-c1cc(C(F)F)no1 [Compound A118],"percentage damage caused to the plant, AMARE",[1],5 (5=81-100%)
same,"percentage damage caused to the plant, ECHCG",[2],5 (5=81-100%)
same,"percentage damage caused to the plant, IPOHE",[3],5 (5=81-100%)
same,"percentage damage caused to the plant, LOLPE",[4],5 (5=81-100%)
same,"percentage damage caused to the plant, SETFA",[5],5 (5=81-100%)
same,"percentage damage caused to the plant, SOLNI",[6],5 (5=81-100%)
same,Pre-emergence Test AMARE percentage damage (five point scale),[7],5 (5=81-100%)
same,Pre-emergence Test ECHCG percentage damage (five point scale),[8],5 (5=81-100%)
same,Pre-emergence Test IPOHE percentage damage (five point scale),[9],4 (4=61-80%)
same,Pre-emergence Test LOLPE percentage damage (five point scale),[10],5 (5=81-100%)
same,Pre-emergence Test SETFA percentage damage (five point scale),[11],5 (5=81-100%)
same,Pre-emergence Test SOLNI percentage damage (five point scale),[12],4 (4=61-80%)
FC(F)c1cc(-c2c(Cl)cccc2Oc2ccc(Br)cn2)on1 [Compound A119],"percentage damage caused to the plant, AMARE",[1],5 (5=81-100%)
same,"percentage damage caused to the plant, ECHCG",[2],4 (4=61-80%)
same,"percentage damage caused to the plant, IPOHE",[3],5 (5=81-100%)
same,"percentage damage caused to the plant, LOLPE",[4],5 (5=81-100%)
same,"percentage damage caused to the plant, SETFA",[5],5 (5=81-100%)
same,"percentage damage caused to the plant, SOLNI",[6],5 (5=81-100%)
same,Pre-emergence Test AMARE percentage damage (five point scale),[7],5 (5=81-100%)
same,Pre-emergence Test ECHCG percentage damage (five point scale),[8],5 (5=81-100%)
same,Pre-emergence Test IPOHE percentage damage (five point scale),[9],4 (4=61-80%)
same,Pre-emergence Test LOLPE percentage damage (five point scale),[10],5 (5=81-100%)
same,Pre-emergence Test SETFA percentage damage (five point scale),[11],5 (5=81-100%)
same,Pre-emergence Test SOLNI percentage damage (five point scale),[12],4 (4=61-80%)
N#Cc1cccnc1Oc1cccc(Cl)c1-c1cc(C(F)F)no1 [Compound A120],"percentage damage caused to the plant, AMARE",[1],5 (5=81-100%)
same,"percentage damage caused to the plant, ECHCG",[2],4 (4=61-80%)
same,"percentage damage caused to the plant, IPOHE",[3],4 (4=61-80%)
same,"percentage damage caused to the plant, LOLPE",[4],3 (3=41-60%)
same,"percentage damage caused to the plant, SETFA",[5],5 (5=81-100%)
same,"percentage damage caused to the plant, SOLNI",[6],5 (5=81-100%)
same,Pre-emergence Test AMARE percentage damage (five point scale),[7],5 (5=81-100%)
same,Pre-emergence Test ECHCG percentage damage (five point scale),[8],5 (5=81-100%)
same,Pre-emergence Test IPOHE percentage damage (five point scale),[9],3 (3=41-60%)
same,Pre-emergence Test LOLPE percentage damage (five point scale),[10],2 (2=21-40%)
same,Pre-emergence Test SETFA percentage damage (five point scale),[11],5 (5=81-100%)
same,Pre-emergence Test SOLNI percentage damage (five point scale),[12],4 (4=61-80%)
Fc1cc(Cl)cnc1Oc1ccccc1-n1ccc(C(F)(F)F)n1 [Compound A121],"percentage damage caused to the plant, AMARE",[1],4 (4=61-80%)
same,"percentage damage caused to the plant, ECHCG",[2],3 (3=41-60%)
same,"percentage damage caused to the plant, IPOHE",[3],2 (2=21-40%)
same,"percentage damage caused to the plant, LOLPE",[4],1 (1=0-20%)
same,"percentage damage caused to the plant, SETFA",[5],3 (3=41-60%)
same,"percentage damage caused to the plant, SOLNI",[6],4 (4=61-80%)
same,Pre-emergence Test AMARE percentage damage (five point scale),[7],4 (4=61-80%)
same,Pre-emergence Test ECHCG percentage damage (five point scale),[8],4 (4=61-80%)
same,Pre-emergence Test IPOHE percentage damage (five point scale),[9],1 (1=0-20%)
same,Pre-emergence Test LOLPE percentage damage (five point scale),[10],1 (1=0-20%)
same,Pre-emergence Test SETFA percentage damage (five point scale),[11],3 (3=41-60%)
same,Pre-emergence Test SOLNI percentage damage (five point scale),[12],1 (1=0-20%)
Fc1cc(Cl)cnc1Oc1cccc(Cl)c1-n1cc(C(F)(F)F)cn1 [Compound A159],"percentage damage caused to the plant, AMARE",[1],5 (5=81-100%)
same,"percentage damage caused to the plant, ECHCG",[2],3 (3=41-60%)
same,"percentage damage caused to the plant, IPOHE",[3],4 (4=61-80%)
same,"percentage damage caused to the plant, LOLPE",[4],4 (4=61-80%)
same,"percentage damage caused to the plant, SETFA",[5],5 (5=81-100%)
same,"percentage damage caused to the plant, SOLNI",[6],5 (5=81-100%)
same,Pre-emergence Test AMARE percentage damage (five point scale),[7],5 (5=81-100%)
same,Pre-emergence Test ECHCG percentage damage (five point scale),[8],5 (5=81-100%)
same,Pre-emergence Test IPOHE percentage damage (five point scale),[9],2 (2=21-40%)
same,Pre-emergence Test LOLPE percentage damage (five point scale),[10],5 (5=81-100%)
same,Pre-emergence Test SETFA percentage damage (five point scale),[11],5 (5=81-100%)
same,Pre-emergence Test SOLNI percentage damage (five point scale),[12],5 (5=81-100%)
N#Cc1cccc(Oc2ncc(F)cc2F)c1-c1cc(C(F)F)no1 [Compound A160],"percentage damage caused to the plant, AMARE",[1],5 (5=81-100%)
same,"percentage damage caused to the plant, ECHCG",[2],5 (5=81-100%)
same,"percentage damage caused to the plant, IPOHE",[3],5 (5=81-100%)
same,"percentage damage caused to the plant, LOLPE",[4],5 (5=81-100%)
same,"percentage damage caused to the plant, SETFA",[5],5 (5=81-100%)
same,"percentage damage caused to the plant, SOLNI",[6],5 (5=81-100%)
same,Pre-emergence Test AMARE percentage damage (five point scale),[7],5 (5=81-100%)
same,Pre-emergence Test ECHCG percentage damage (five point scale),[8],5 (5=81-100%)
same,Pre-emergence Test IPOHE percentage damage (five point scale),[9],5 (5=81-100%)
same,Pre-emergence Test LOLPE percentage damage (five point scale),[10],5 (5=81-100%)
same,Pre-emergence Test SETFA percentage damage (five point scale),[11],5 (5=81-100%)
same,Pre-emergence Test SOLNI percentage damage (five point scale),[12],4 (4=61-80%)
N#Cc1cccc(Oc2ccc(Cl)cn2)c1-c1cc(C(F)F)no1 [Compound A161],"percentage damage caused to the plant, AMARE",[1],5 (5=81-100%)
same,"percentage damage caused to the plant, ECHCG",[2],5 (5=81-100%)
same,"percentage damage caused to the plant, IPOHE",[3],5 (5=81-100%)
same,"percentage damage caused to the plant, LOLPE",[4],5 (5=81-100%)
same,"percentage damage caused to the plant, SETFA",[5],5 (5=81-100%)
same,"percentage damage caused to the plant, SOLNI",[6],5 (5=81-100%)
same,Pre-emergence Test AMARE percentage damage (five point scale),[7],5 (5=81-100%)
same,Pre-emergence Test ECHCG percentage damage (five point scale),[8],5 (5=81-100%)
same,Pre-emergence Test IPOHE percentage damage (five point scale),[9],5 (5=81-100%)
same,Pre-emergence Test LOLPE percentage damage (five point scale),[10],5 (5=81-100%)
same,Pre-emergence Test SETFA percentage damage (five point scale),[11],5 (5=81-100%)
same,Pre-emergence Test SOLNI percentage damage (five point scale),[12],4 (4=61-80%)
N#Cc1cccc(Oc2ncc(Cl)cc2F)c1-c1cc(C(F)F)no1 [Compound A162],"percentage damage caused to the plant, AMARE",[1],5 (5=81-100%)
same,"percentage damage caused to the plant, ECHCG",[2],4 (4=61-80%)
same,"percentage damage caused to the plant, IPOHE",[3],5 (5=81-100%)
same,"percentage damage caused to the plant, LOLPE",[4],5 (5=81-100%)
same,"percentage damage caused to the plant, SETFA",[5],5 (5=81-100%)
same,"percentage damage caused to the plant, SOLNI",[6],5 (5=81-100%)
same,Pre-emergence Test AMARE percentage damage (five point scale),[7],5 (5=81-100%)
same,Pre-emergence Test ECHCG percentage damage (five point scale),[8],5 (5=81-100%)
same,Pre-emergence Test IPOHE percentage damage (five point scale),[9],5 (5=81-100%)
same,Pre-emergence Test LOLPE percentage damage (five point scale),[10],5 (5=81-100%)
same,Pre-emergence Test SETFA percentage damage (five point scale),[11],5 (5=81-100%)
same,Pre-emergence Test SOLNI percentage damage (five point scale),[12],4 (4=61-80%)
